Data on ten molecules can be found in US20240299348A1, “MODULATORS OF TRPML, THEIR COMPOSITIONS AND METHODS OF USE” (Caraway Therapeutics, Inc., priority 2021, published 2024).

What is called EC50 is the concentration giving half of the maximal effect.

The target of one assay is TRPML1 (Homo sapiens, UniProt Q9GZU1, L15A/L16A). Kind of assay: GCaMP surface assay. The assay is classed as cell-based.
Assay [1] has as its system mIMCD-3 cells with the PKD1 gene knocked out. The assay can be described thus: Forskolin-induced cyst swelling, in vitro model of Polycystic Kidney Disease. The assay is classed as cell-based, murine. The conditions noted are these: 5 uM forskolin, 72 hours of compound treatment; DMSO 100%+/−7.1. Here is the method:
Shown in FIG. 3 are results from an experiment where mIMCD-3 cells with the PKD1 gene knocked out via CRISPR-generated frameshifting indels were seeded into 384 well plates containing Matrigel and cultured in standard growth media for 4 days until they formed spherical organoid cysts as described in Reference 1 (Booij et al., SLAS Discov. 2017 September; 22(8):974-984). TRPML1 activators and vehicle were added to the cells at the indicated concentrations, in combination with 5 uM forskolin to induce cyst swelling. Four replicates per treatment were used. Approximately half of the media in each well was replaced with fresh media containing compounds and forskolin every 24 hours. After 72 hours of compound treatment, the cysts were fixed and stained for nuclei (DAPI) and actin (fluorescent-conjugated phalloidin). The ability of the TRPML1 activators to inhibit forskolin-induced cyst swelling was assessed using the 2-dimensional cross-sectional area of each cyst as measured using a high content microscope with a 4× objective, and analyzed using proprietary Ominer software. Cyst areas were averaged within each well and normalized to the vehicle control (DMSO).

Assay [2] addresses T1, hTRPML1 (Homo sapiens, UniProt Q9GZU1). Kind of assay: TRPML1 fluorescent (Fluo-4) assay. Type of assay: cell-based. The conditions noted are these: activation; HEK-293 Trex cells expressing hTRPML1; read-out: Secondary Screening: Fluo-4: hTRPML1: EC50. Set-up: Secondary Screening: Fluo-4: hTRPML1: EC50 (M); HEK-293 Trex cells expressing hTRPML1. The procedure:
(§1) HEK-293 Trex cells were stably transfected with a construct consisting of the human coding sequence for TRPML1 cloned into the […] plasmid pCDNA5 T/O. Mutations were introduced into the TRPML1 sequence to facilitate expression on the cell surface (Silvia Vergarajauregui, Rosa Puertollano Traffic. 2006 March; 7(3): 337-353). Briefly, the cells are cultured in 150 mm round tissue culture dishes containing 20 mL of media. The day before the assay the cells are rinsed with DPBS—Ca—Mg and then treated briefly with Trypsin-EDTA. The Trypsin-EDTA is diluted with growth media, and cells are counted. 38×10^6 cells are re-plated into 150 mm round tissue culture dishes in media containing 0.5 ug/mL doxycycline to induce expression of hTRPML1.
The day of the experiment cells are lifted from the plates as above and collected by centrifugation. The cells are then suspended in dye loading buffer consisting of Ringer's solution supplemented with 0.1% Pluronic Acid and 1 micromolar Fluo4-AM dye. Cells are loaded for ˜60 minutes in the dark with occasional mixing. The cells are collected by centrifugation, the loading media aspirated, and the cells resuspended in 25 mL Ringer's solution and incubated ˜60 minutes in the dark. The cells are again collected by centrifugation, rinsed in Ringer's Solution and resuspended to 0.2×10^6 cells/mL in modified Ringer's solution containing 10 mM calcium.
Compounds are dissolved to a concentration of 10 millimolar with DMSO. Compound plates are created by dispensing compounds into 384 well black wall clear bottom plates (Greiner 781091). Positive and negative controls are included on each plate. Typically, different amounts of each compound are tested ranging from 100 nanoMoles (20 micromolar final concentration) decreasing in half-log steps to 31 picoMoles (6 nanomolar final concentration). Each concentration is typically tested in triplicate.
(§2) 50 microliters of dye-loaded cells are dispensed into each well of the compound assay plate created above. The fluorescence in each well is then determined with an excitation wavelength of 480 nm and an emission wavelength of 540 nm using either a Molecular Devices SpectraMax multimode plate reader or a Hamamatsu FDSS/uCell plate imager.
(§3) The resulting fluorescence for each well is exported as an ascii file and loaded into our LIMS for analysis. The percent activity of each compound at each concentration is determined by comparison to the positive and negative control wells included in each plate.
(§4) EC50 values were calculated using a non-linear regression of Prism.

The target of another assay is T2, hTRPML2 (Homo sapiens, UniProt Q8IZK6).
T2 construct: expressed in transfected cells; host or cells: HEK-293 Trex (by analogy, 'performed as above')
T2 sequence (Q8IZK6 1-566): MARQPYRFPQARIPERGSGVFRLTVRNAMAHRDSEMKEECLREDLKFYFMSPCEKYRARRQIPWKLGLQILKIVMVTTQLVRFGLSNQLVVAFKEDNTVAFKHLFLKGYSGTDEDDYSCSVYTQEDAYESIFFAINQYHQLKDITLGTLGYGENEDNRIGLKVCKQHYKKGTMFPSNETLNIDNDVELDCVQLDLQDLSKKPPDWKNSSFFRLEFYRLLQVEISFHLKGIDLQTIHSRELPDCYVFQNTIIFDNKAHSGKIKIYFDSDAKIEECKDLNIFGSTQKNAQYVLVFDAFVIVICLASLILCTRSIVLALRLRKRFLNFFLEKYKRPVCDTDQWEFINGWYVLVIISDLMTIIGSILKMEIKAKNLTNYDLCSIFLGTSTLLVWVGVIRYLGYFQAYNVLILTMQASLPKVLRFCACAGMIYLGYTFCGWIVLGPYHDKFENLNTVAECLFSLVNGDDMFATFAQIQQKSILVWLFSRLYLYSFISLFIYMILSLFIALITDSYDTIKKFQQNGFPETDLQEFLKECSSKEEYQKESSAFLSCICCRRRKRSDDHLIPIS
Kind of assay: TRPML2 fluorescent (Fluo-4) assay. The assay is classed as cell-based. Here is the method:
(§5) Assays for TRPML2 and TRPML3 were performed as above for TRPML1, by substituting the appropriate TRPML2 or TRPML3 subtype for the TRPML1.
as §4

In the next assay the target is T3, hTRPML3 (Homo sapiens, UniProt Q8TDD5).
T3 construct: expressed in transfected cells; host or cells: HEK-293 Trex (by analogy, 'performed as above')
T3 sequence (Q8TDD5 1-553): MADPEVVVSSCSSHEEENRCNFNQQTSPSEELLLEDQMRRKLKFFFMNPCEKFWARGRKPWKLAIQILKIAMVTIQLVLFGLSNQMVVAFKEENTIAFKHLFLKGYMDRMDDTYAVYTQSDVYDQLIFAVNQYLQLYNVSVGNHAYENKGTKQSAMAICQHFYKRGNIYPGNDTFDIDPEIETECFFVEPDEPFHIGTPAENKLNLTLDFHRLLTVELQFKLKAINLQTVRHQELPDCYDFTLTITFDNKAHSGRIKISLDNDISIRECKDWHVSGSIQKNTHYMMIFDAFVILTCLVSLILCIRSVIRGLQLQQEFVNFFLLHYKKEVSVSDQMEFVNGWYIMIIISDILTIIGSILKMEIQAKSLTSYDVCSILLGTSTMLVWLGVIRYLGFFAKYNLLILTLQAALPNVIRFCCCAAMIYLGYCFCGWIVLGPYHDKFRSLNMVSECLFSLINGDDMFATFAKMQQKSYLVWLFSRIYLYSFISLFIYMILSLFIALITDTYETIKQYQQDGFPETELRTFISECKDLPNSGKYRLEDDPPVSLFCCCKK
Kind of assay: TRPML3 fluorescent (Fluo-4) assay. The assay is classed as cell-based. Here is the method:
as §5, §4

The test system of assay [3] is HeLa cells with the NPC2 gene knocked out. The assay can be described thus: Total hexosylceramides in HeLa cells with NPC2 gene knocked out. Type of assay: cell-based. The conditions noted are these: NPC2 knockout HeLa. The procedure: (§6) HeLa cells with the NPC1 gene knocked out via CRISPR-generated frameshifting indels were grown in standard cell culture conditions (DMEM high glucose with 10% FBS and penicillin/streptomycin). Cells were treated with the indicated concentrations of TRPML1 activators for 48 hours; media and compound were refreshed every 24 hours (FIG. 1). Two replicates per treatment were used. Cells were pelleted in PBS, frozen, and shipped to the Medical University of South Carolina (MUSC) for lipid quantitation by mass spectrometry. Lipid quantities were normalized to total inorganic phosphate in the cell sample as assessed by mass spectrometry. […] Statistical significance versus DMSO (p values indicated above) unpaired t-test.
Shown in FIG. 2 are results from the same experiment described in FIG. 1, but using HeLa cells with the NPC2 gene knocked out via CRISPR.

Assay [4] deals with HeLa cells with the NPC1 gene knocked out. The assay can be described thus: Total hexosylceramides in HeLa cells with NPC1 gene knocked out. Type of assay: cell-based. The conditions noted are these: NPC1 knockout HeLa, FIG. 1. The procedure: as §6
A further assay concerns TRPMLs. The note with it: literature report; cited from earlier work.
For assay [5], the target named is T1, hTRPML1. The assay can be described thus: TRPML1 fluorescent (Fluo-4) assay. Set-up: fused on or other part: Possibly a GCaMP calcium sensor fused on, for the parenthetic 'GCaMP surface assay' value. Type of assay: cell-based. The procedure:
as §1, with “38×10^6 cells are re-plated into 150 mm round tissue culture dishes in media containing 0.5 ug/mL doxycycline to induce expression of hTRPML1.” left out
as §2, §3, §4

Where [6] appears, read: activation, read-out: Secondary Screening: Fluo-4: hTRPML2: EC50.
The mark [7] stands for this setting: activation, read-out: Secondary Screening: Fluo-4: hTRPML3: EC50.

Read-outs that look alike come from different tables or passages of the source. Where only a bound is given, the exact number is not on record here.

T1 sequence (Q9GZU1 whole entry L15A/L16A/L577A/L578A, form open): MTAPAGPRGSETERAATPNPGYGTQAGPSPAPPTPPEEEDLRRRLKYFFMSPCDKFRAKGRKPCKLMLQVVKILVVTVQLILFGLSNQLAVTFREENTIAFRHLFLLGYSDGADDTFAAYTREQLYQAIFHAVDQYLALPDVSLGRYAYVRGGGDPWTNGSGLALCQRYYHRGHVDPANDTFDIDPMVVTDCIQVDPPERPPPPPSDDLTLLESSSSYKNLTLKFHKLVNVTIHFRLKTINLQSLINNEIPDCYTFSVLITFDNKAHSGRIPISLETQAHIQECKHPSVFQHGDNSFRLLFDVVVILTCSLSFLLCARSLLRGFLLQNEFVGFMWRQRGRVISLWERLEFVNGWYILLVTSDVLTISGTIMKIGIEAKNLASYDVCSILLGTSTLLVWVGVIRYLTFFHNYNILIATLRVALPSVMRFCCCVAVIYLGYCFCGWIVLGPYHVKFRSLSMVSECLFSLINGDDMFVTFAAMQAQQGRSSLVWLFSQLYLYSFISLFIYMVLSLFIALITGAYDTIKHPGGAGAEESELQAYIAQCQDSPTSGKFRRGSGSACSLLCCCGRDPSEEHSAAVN
TRPML1, sequence (Q9GZU1 with tags, fused parts or gaps L15A/L16A): as the sequence (Q9GZU1 whole entry L15A/L16A/L577A/L578A, form open) above

Turning to `CN(C)S(=O)(=O)c1ccc(S(=O)(=O)Nc2ccccc2N2CCN(c3ccc(Cl)cc3F)CC2)cc1` [Compound 125], the EC50 on TRPML1 was determined as 453 nM. Moreover, the “cyst area normalized to the vehicle control (DMSO)” value (“cyst area normalized” below) in assay [1] stood at 69.6%+/−4.4.

With `CN(c1ccccc1NS(=O)(=O)c1ccc(S(=O)(=O)N(C)C)cc1)C1CCN(C(=O)OC2CCCCC2)C1` (stereo not drawn) [Compound 124, cyclohexyl 3-((2-((4-(N,N-dimethylsulfamoyl)phenyl)sulfonamido)phenyl)(methyl)amino)pyrrolidine-1-carboxylate], the 50% effective concentration (EC50) lay within 300 to 1000 nM at hTRPML1 [2], 1000 to 5000 nM at hTRPML2 (setting [6]) and 300 to 1000 nM on hTRPML3 (setting [7]).

Consider `CN(c1ccccc1NS(=O)(=O)c1ccc(S(=O)(=O)N(C)C)cc1)C1CCN(c2ccc(Cl)cc2F)C1` (stereo not drawn) [Compound 101, N^1-(2-((1-(4-chloro-2-fluorophenyl)pyrrolidin-3-yl)(methyl)amino)phenyl)-N^4,N^4-dimethylbenzene-1,4-disulfonamide], for which the “total HexosylCeramides” value in assay [3] (48 hours treatment, DMSO 6.45+/−0.28) was 3.48+/−0.20 HexCer/nmol Pi/sample. The “total hexosylCeramides compared with DMSO vehicle (in words)” value in assay [3] (FIG. 2) and in [4] was “reduced” in each case. Also, the EC50 is 300 to 1000 nM at hTRPML1 [2], < 300 nM at hTRPML2 (setting [6]) and < 300 nM at hTRPML3 (setting [7]). Also, in [1], the “cyst area normalized” value is reported as 51.2%+/−1.6.

For the molecule `CN(c1ccccc1NS(=O)(=O)c1ccc(S(C)(=O)=O)cc1)C1CCN(c2ccc(Cl)cc2F)C1` (stereo not drawn) [Compound 113, N-(2-((1-(4-Chloro-2-fluorophenyl)pyrrolidin-3-yl)(methyl)amino)phenyl)-4-(methylsulfonyl)benzene-sulfonamide], the results for the EC50 at hTRPML1 [2], at hTRPML2 (setting [6]) and on hTRPML3 (setting [7]) were 300 to 1000 nM, > 5000 nM and 1000 to 5000 nM, respectively.

`CN(C)S(=O)(=O)c1ccc(S(=O)(=O)N[C@@H]2CCCCC[C@@H]2N2CCN(c3ccc(Cl)cc3F)CC2)cc1` (relative stereo) [Compound 122, Cis-N^1-(2-(4-(4-chloro-2-fluorophenyl)piperazin-1-yl)cycloheptyl)-N^4,N^4-dimethylbenzene-1,4-disulfonamide]: the EC50 at hTRPML1 [2] was < 300 nM; at hTRPML2 (setting [6]) it was 1000 to 5000 nM; at hTRPML3 (setting [7]), 300 to 1000 nM.

`CC1CC(C)(C)N(C(=O)CN2C(=O)c3ccccc3C2=O)c2ccccc21` (stereo not drawn) [Compound 126, reference compound]: at hTRPML2 (Table 2 key), the “TRPML2 activation EC50 (Table 2, class)” value is listed as “B/C/D”. Besides, the EC50 was determined as 5410 nM at hTRPML2 (read-out: TRPML2 activation EC50 (Table 2, number)); 1580 nM on hTRPML3 (read-out: TRPML3 activation EC50 (Table 2, number)); 3520 nM on hTRPML1 [5] (read-out: TRPML1 activation EC50 (Table 2, number)). In the assay on TRPMLs, the “concentration needed to effectively activate TRPMLs” value is ~10 µM. The “TRPML1 activation EC50 (Table 2, class)” value at hTRPML1 [5] (Table 2 key) is recorded as “B/C/D”. Further, the “cyst area normalized” value in assay [1] is on record as 72.3%+/−2.5.

Turning to `CN(c1ccccc1NS(=O)(=O)c1ccc(S(=O)(=O)N(C)C)cc1)C1CCN(C(=O)Oc2ccccc2)C1` (stereo not drawn) [Compound 123, Phenyl 3-((2-((4-(N,N-dimethylsulfamoyl)phenyl)sulfonamido)phenyl)(methyl)amino)pyrrolidine-1-carboxylate], the EC50 on hTRPML1 [2] was in the range of 1000 to 5000 nM; at hTRPML2 (setting [6]), 1000 to 5000 nM; on hTRPML3 (setting [7]) it was 300 to 1000 nM.

In the case of `Cc1ccc(S(=O)(=O)Nc2ccccc2N2CCCCC2)s1` [Compound 127, reference compound], on TRPML1, the EC50 was 2640 nM. In assay [1], the “cyst area normalized” value was determined as 79.6%+/−3.8.

Consider `CN(C)S(=O)(=O)c1ccc(S(=O)(=O)N[C@@H]2CCCCC[C@H]2N2CCN(c3ccc(Cl)cc3F)CC2)cc1` (relative stereo) [Compound 120, trans-N^1-(2-(4-(4-chloro-2-fluorophenyl)piperazin-1-yl)cycloheptyl)-N^4,N^4 dimethylbenzene-1,4-disulfonamide], for which the EC50 at hTRPML1 [2] is < 300 nM; at hTRPML2 (setting [6]) it was 1000 to 5000 nM; at hTRPML3 (setting [7]), 300 to 1000 nM.

Regarding `CN(C1CCN(c2ccccc2F)C1)[C@H]1CCCC[C@@H]1NS(=O)(=O)c1ccc(S(=O)(=O)N(C)C)cc1` (relative stereo) [Compound 121, trans-N^1-(2-((1-(2-fluorophenyl)pyrrolidin-3-yl)(methyl)amino)-cyclohexyl)-N^4,N^4-dimethylbenzene-1,4-disulfonamide], the results for the EC50 on hTRPML1 [2], on hTRPML2 (setting [6]) and at hTRPML3 (setting [7]) were 1000 to 5000 nM, 1000 to 5000 nM and 300 to 1000 nM, respectively.
